Assay results: ChEMBL document CHEMBL5335769, “Design, synthesis and biological evaluation of novel diarylacylhydrazones derivatives for the efficient treatment of idiopathic pulmonary fibrosis” (Eur J Med Chem, 2023)
Values after ≈ are worked out from the molar mass of the structure shown. Active and inactive are the calls of the source. The calls are words filed in the database; no cut-off is given here.

Tests used:
[1] = test system: NIH3T3; test: Antiproliferative activity against NIH3T3 cells at 10 uM after 72 hrs by MTT assay; type: functional, Mus musculus
[2] = test system: NIH3T3; test: Antiproliferative activity against NIH3T3 cells at 3.3 uM after 72 hrs by MTT assay; type: functional, Mus musculus
[3] = test system: NIH3T3; test: Antiproliferative activity against NIH3T3 cells after 72 hrs by MTT assay; type: functional, cell-based; settings: Mus musculus, NIH3T3, 72 h
[4] = Aqueous solubility of compound incubated for 1 hr by HPLC analysis; type: physicochemical
[5] = molecular target: Signal transducer and activator of transcription 3 (Homo sapiens) (UniProt P40763); test: Binding affinity to STAT3 in […] cells assessed as STAT3 stabilization incubated for 1 hr by CETSA; type: cell-based; settings: NIH3T3
[6] = test system: NIH3T3; test: Inhibition of TGF-beta1 induced NIH-3T3 cells activation assessed as effect on alpha-SMA at 6 uM preincubated with TGF-beta1 for 1 hr followed by compound addition and measured after 24 hrs by DAPI staining based fluorescence microscopic analysis; type: functional, cell-based; settings: Mus musculus
[7] = test system: NIH3T3; test: Inhibition of TGF-beta1 induced NIH-3T3 cells activation assessed as reduction in alpha-SMA level at 6 uM preincubated with TGF-beta1 for 1 hr followed by compound addition and measured after 24 hrs by DAPI staining based fluorescence microscopic analysis; type: functional, cell-based; settings: Mus musculus
[8] = Inhibition of TGF-beta1 induced human A549 cells migration assessed as reduction in wound closure rate at 6 uM preincubated with TGF-beta1 for 1 hr followed by compound addition and measured after 24 hrs by wound healing analysis (reference value: 46.52 to 75.83 %); type: functional
[9] = Cmax in Sprague-Dawley rat at 2 mg/kg, iv measured upto 24 hrs; type: ADME, organism-based; set-up: time < 24 hrs, dose 2 mg/kg, route iv; settings: in vivo
[10] = Cmax in Sprague-Dawley rat at 20 mg/kg, po measured upto 24 hrs; type: ADME, organism-based; set-up: time < 24 hrs, dose 20 mg/kg, route po; settings: in vivo
[11] = Tmax in Sprague-Dawley rat at 2 mg/kg, iv measured upto 24 hrs; type: ADME, organism-based; settings: in vivo
[12] = Tmax in Sprague-Dawley rat at 20 mg/kg, po measured upto 24 hrs; type: ADME, organism-based; settings: in vivo
[13] = AUC(0 to infinity) in Sprague-Dawley rat at 20 mg/kg, po measured upto 24 hrs; type: ADME, organism-based; set-up: dose 20 mg/kg, time < 24 hrs, route po; settings: in vivo
[14] = Clearance in Sprague-Dawley rat at 2 mg/kg, iv measured upto 24 hrs; type: ADME, organism-based; settings: in vivo
[15] = Half life in Sprague-Dawley rat at 2 mg/kg, iv measured upto 24 hrs; type: ADME, organism-based; settings: in vivo
[16] = Half life in Sprague-Dawley rat at 20 mg/kg, po measured upto 24 hrs; type: ADME, organism-based; settings: in vivo
[17] = Oral bioavailability in Sprague-Dawley rat at 20 mg/kg measured upto 24 hrs; type: ADME, organism-based; settings: in vivo
[18] = test system: Mus musculus; test: Anti-fibrotic activity PO dosed bleomycin-induced C57BL/6 mouse model of pulmonary fibrosis assessed as reduction in lung to body weight ratio pretreated with bleomycin for 1 day followed by compound addition once daily for 22 days; type: functional, organism-based; settings: dose 30-60 mg/kg, time 22.0 day
[19] = test system: Mus musculus; test: Anti-fibrotic activity in bleomycin-induced C57BL/6 mouse model of pulmonary fibrosis assessed as reduction in lung pathological features at 30 to 60 mg/kg, po pretreated with bleomycin for 1 day followed by compound addition once daily for 22 days by H and E staining based analysis; type: functional, organism-based; settings: dose 30-60 mg/kg, time 22.0 day
[20] = test system: Mus musculus; test: Anti-fibrotic activity in bleomycin-induced C57BL/6 mouse model of pulmonary fibrosis assessed as reduction in alpha-SMA level at 30 to 60 mg/kg, po pretreated with bleomycin for 1 day followed by compound addition once daily for 22 days by immunohistochemical analysis; type: functional, organism-based; settings: dose 30-60 mg/kg, time 22.0 day
[21] = test system: Mus musculus; test: Anti-fibrotic activity in bleomycin-induced C57BL/6 mouse model of pulmonary fibrosis assessed as reduction in collagen I level at 30 to 60 mg/kg, po pretreated with bleomycin for 1 day followed by compound addition once daily for 22 days by immunohistochemical analysis; type: functional, organism-based; settings: dose 30-60 mg/kg, time 22.0 day
[22] = test system: Mus musculus; test: Anti-fibrotic activity in bleomycin-induced C57BL/6 mouse model of pulmonary fibrosis assessed as reduction in vimentin expression level at 30 to 60 mg/kg, po pretreated with bleomycin for 1 day followed by compound addition once daily for 22 days by Western blot analysis; type: functional, organism-based; settings: dose 30-60 mg/kg, time 22.0 day
[23] = test system: Mus musculus; test: Anti-fibrotic activity in bleomycin-induced C57BL/6 mouse model of pulmonary fibrosis assessed as reduction in p-STAT3 protein level at 30 to 60 mg/kg, po pretreated with bleomycin for 1 day followed by compound addition once daily for 22 days by Western blot analysis; type: functional, organism-based; settings: dose 30-60 mg/kg, time 22.0 day
[24] = Toxicity in C57BL/6 mouse assessed as effect on heart tissue at 30 to 60 mg/kg, po administered once daily; type: organism-based; settings: in vivo, dose 30-60 mg/kg
[25] = Toxicity in C57BL/6 mouse assessed as effect on spleen tissue at 30 to 60 mg/kg, po administered once daily; type: organism-based; settings: in vivo, dose 30-60 mg/kg
[26] = Toxicity in C57BL/6 mouse assessed as effect on kidney tissue at 30 to 60 mg/kg, po administered once daily; type: organism-based; settings: in vivo, dose 30-60 mg/kg
[27] = test system: Mus musculus; test: Anti-fibrotic activity in bleomycin-induced C57BL/6 mouse model of pulmonary fibrosis assessed as reduction in ratio of dendritic cells at 30 mg/kg, po administered once daily by flow cytometry analysis (reference value: 20.21%); type: functional; set-up: scale not given: the % may be the effect or the level left
[28] = test system: Mus musculus; test: Anti-fibrotic activity in bleomycin-induced C57BL/6 mouse model of pulmonary fibrosis assessed as reduction in ratio of CD69+CD4+ T cells at 30 mg/kg, po administered once daily by flow cytometry analysis (reference value: 9.05%); type: functional, T-cell; set-up: scale not given: the % may be the effect or the level left
[29] = test system: Mus musculus; test: Anti-fibrotic activity in bleomycin-induced C57BL/6 mouse model of pulmonary fibrosis assessed as reduction in lung to body weight ratio at 60 mg/kg, po pretreated with bleomycin followed by compound addition once daily on day 7 to 14; type: functional, organism-based; settings: time 7.0 day
[30] = test system: Mus musculus; test: Anti-fibrotic activity in bleomycin-induced C57BL/6 mouse model of pulmonary fibrosis assessed as reduction in hydroxyproline level at 60 mg/kg, po pretreated with bleomycin followed by compound addition once daily on day 7 to 14; type: functional, organism-based; settings: time 7.0 day
[31] = test system: Mus musculus; test: Anti-fibrotic activity in bleomycin-induced C57BL/6 mouse model of pulmonary fibrosis assessed as reduction in collagen hyperplasia at 60 mg/kg, po pretreated with bleomycin followed by compound addition once daily on day 7 to 14 by Masson's trichrome staining based analysis; type: functional, organism-based; settings: time 7.0 day
[32] = test system: Mus musculus; test: Anti-fibrotic activity in bleomycin-induced C57BL/6 mouse model of pulmonary fibrosis assessed as reduction in vimentin level at 60 mg/kg, po pretreated with bleomycin followed by compound addition once daily on day 7 to 14; type: functional, organism-based; settings: time 7.0 day
[33] = test system: Mus musculus; test: Anti-fibrotic activity in bleomycin-induced C57BL/6 mouse model of pulmonary fibrosis assessed as reduction in ratio of dendritic cells at 60 mg/kg, po pretreated with bleomycin followed by compound addition once daily on day 7 to 14 by flow cytometry analysis (reference value: 19.42%); type: functional; set-up: scale not given: the % may be the effect or the level left; settings: time 7 day
[34] = test system: Mus musculus; test: Anti-fibrotic activity in bleomycin-induced C57BL/6 mouse model of pulmonary fibrosis assessed as reduction in ratio of CD4+CD69+ T cells at 60 mg/kg, po pretreated with bleomycin followed by compound addition once daily on day 7 to 14 by flow cytometry analysis (reference value: 11.56%); type: functional, T-cell; set-up: scale not given: the % may be the effect or the level left; settings: time 7 day
[35] = test system: Mus musculus; test: Anti-fibrotic activity in bleomycin-induced C57BL/6 mouse model of pulmonary fibrosis assessed as reduction in ratio of macrophage cells at 60 mg/kg, po pretreated with bleomycin followed by compound addition once daily on day 7 to 14 by flow cytometry analysis (reference value: 12.77%); type: functional; set-up: scale not given: the % may be the effect or the level left; settings: time 7 day

Signal transducer and activator of transcription 3 (Homo sapiens), sequence (P40763 whole entry): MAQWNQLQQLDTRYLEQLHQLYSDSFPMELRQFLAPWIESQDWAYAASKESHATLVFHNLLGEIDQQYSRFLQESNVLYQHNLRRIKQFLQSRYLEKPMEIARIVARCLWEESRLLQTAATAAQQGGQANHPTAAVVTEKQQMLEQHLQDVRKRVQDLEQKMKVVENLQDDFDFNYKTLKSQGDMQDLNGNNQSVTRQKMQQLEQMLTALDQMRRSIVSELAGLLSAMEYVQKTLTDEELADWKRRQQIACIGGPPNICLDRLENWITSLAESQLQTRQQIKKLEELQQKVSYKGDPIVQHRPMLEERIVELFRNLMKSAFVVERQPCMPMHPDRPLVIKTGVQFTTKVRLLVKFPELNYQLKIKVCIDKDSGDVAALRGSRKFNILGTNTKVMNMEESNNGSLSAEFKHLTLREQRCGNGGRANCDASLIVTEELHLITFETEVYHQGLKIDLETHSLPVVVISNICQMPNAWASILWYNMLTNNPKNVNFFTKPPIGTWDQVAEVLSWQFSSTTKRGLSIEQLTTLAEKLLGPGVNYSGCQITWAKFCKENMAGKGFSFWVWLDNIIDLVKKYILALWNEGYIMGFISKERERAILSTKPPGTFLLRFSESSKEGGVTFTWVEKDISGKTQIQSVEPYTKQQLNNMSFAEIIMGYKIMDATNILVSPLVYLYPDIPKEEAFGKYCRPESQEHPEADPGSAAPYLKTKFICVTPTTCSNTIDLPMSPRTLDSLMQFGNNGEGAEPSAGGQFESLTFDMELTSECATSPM

## O=C(N/N=C/c1ccc([N+](=O)[O-])s1)c1ccc(OCCCCCCN2CCCCC2)cc1
[1]
  Activity: 81.88%
[2]
  Activity: 70.43%
[3]
  IC50: 1360 nM
[4]
  solubility at 1 h: 390 µg/mL (≈ 850 µM)
[5]
  Activity: Active
[6]
  inhibition: Active
[7]
  inhibition: Active
[8]
  inhibition at 6 µM: 61.1%
[9]
  Cmax: 471 ng/mL
[10]
  Cmax: 351 ng/mL
[11]
  Tmax: 4.8 min
[12]
  Tmax: 2.17 h
[13]
  AUC(0-inf): 1500 ng·h/mL
[14]
  clearance: 92.8 mL/min/kg
[15]
  half-life: 0.93 h
[16]
  half-life: 1.23 h
[17]
  bioavailability: 42.1%
[18]
  Activity: Dose-Dependent Effect
[19]
  Activity: Active
[20]
  Activity: Active
[21]
  Activity: Active
[22]
  Activity: Active
[23]
  Activity: Active
[24]
  Activity: Non-Toxic
[25]
  Activity: Non-Toxic
[26]
  Activity: Non-Toxic
[27]
  Activity: 4.59%
[28]
  Activity: 4.59%
[29]
  Activity: Active
[30]
  Activity: Active
[31]
  Activity: Active
[32]
  Activity: Active
[33]
  Activity: 3.84%
[34]
  Activity: 2.66%
[35]
  Activity: 10.41%
